Reference: patent US4133888A, “Analgesic and morphine antagonistic 2'-hydroxy-2-(5-isoxazolyl-methyl)-6,7-benzomorphans and salts thereof” (Boehringer Ingelheim GmbH, priority 1977, dated 1979)

Assays:
mouse [1] = assay: Analgesia, writhing test, mouse s.c.; assay type: in vivo; conditions: for ED50: sc, mouse s.c.
Excerpt: (§1) The compounds of the present invention, that is, those embraced by formula I above and their non-toxic, pharmacologically acceptable acid addition salts, have useful pharmacodynamic properties. More particularly, they exert a therapeutically useful effect upon the central nervous system in warm-blooded animals, such as mice, especially analgesic and morphine-antagonistic activities, which were confirmed in the writhing test and the Haffner test. Pursuant to prevailing teachings, this agonistic/antagonistic activity spectrum points toward the absence of or a very low abuse potential.

mouse [2] = assay: Morphine-antagonism, mouse (Nalorphine = 1); assay type: in vivo; conditions: for Morphine-antagonism (Nalorphine = 1): mouse, relative potency
Excerpt: as §1

Toxicity, mouse, s.c. = assay type: in vivo; conditions: in vivo, sc; for LD50: mouse; for selectivity ratio: mouse s.c., LD50 / writhing ED50, read-out: Index LD50/ED50
mouse [3] = assay: Toxicity, mouse, s.c.; assay type: in vivo
[4] = test system: withdrawn morphine dependent rats; assay: Suppression of abstinence symptoms in withdrawn morphine dependent rats; assay type: in vivo, rat
Excerpt: as §1

[5] = test system: withdrawn morphine dependent monkeys; assay: Suppression of abstinence symptoms in withdrawn morphine dependent monkeys; assay type: in vivo, monkey

SMILES	ED50 (mouse [1])	Morphine-antagonism (Nalorphine = 1) (mouse [2])	LD50 (Toxicity, mouse, s.c.)	selectivity ratio (Toxicity, mouse, s.c.)	analgesic activity compared with 2-furfuryl-2'-hydroxy-5,9-α-dimethyl-6,7-benzomorphan (mouse [1]; vs. 2-furfuryl compound)	therapeutic index compared with 2-furfuryl-2'-hydroxy-5,9-α-dimethyl-6,7-benzomorphan (mouse [3]; vs. 2-furfuryl compound)	therapeutic index compared to pentazocine (mouse [3]; vs. pentazocine)	suppression of abstinence symptoms [4]	suppression of abstinence symptoms [5]	antagonistic component (mouse [2]; morphine antagonism, in words)
CC(C)=CCN1CCC2(C)c3cc(O)ccc3CC1C2C (stereo not shown) [Pentazocine]	1.4 mg/kg	0.025	220 mg/kg	157						
C[C@H]1[C@H]2Cc3ccc(O)cc3[C@]1(C)CCN2Cc1ccno1 (relative stereo) [Example 1, 5,9-α-Dimethyl-2'-hydroxy-2-(5-isoxazolyl-methyl)-6,7-benzomorphan]	0.6 mg/kg	0.1	1080 mg/kg	1800	significantly superior	significantly superior	far superior	not capable of suppressing the abstinence symptoms	not capable of suppressing the abstinence symptoms	
Cc1ccoc1CN1CC[C@@]2(C)c3cc(O)ccc3C[C@@H]1[C@@H]2C (relative stereo) [2-(3-methyl-furfuryl)-2'-hydroxy-5,9-α-dimethyl-6,7-benzomorphan]	0.6 mg/kg	inactive	305 mg/kg	508						does not have the desired antagonistic component
C[C@H]1[C@H]2Cc3ccc(O)cc3[C@]1(C)CCN2Cc1ccco1 (relative stereo) [2-furfuryl-2'-hydroxy-5,9-α-dimethyl-6,7-benzomorphan]	18 mg/kg	1	292 mg/kg	16						
